From PMC10133546, “Simultaneous determination of multiple components in rat plasma by UHPLC-sMRM for pharmacokinetic studies after oral administration of Qingjin Yiqi Granules” (Frontiers in Pharmacology, 2023)
Read-outs that look alike come from different tables or passages of the source.

Experiments:
[1] = Stability of the working solution (4°C for 1 month); type: physicochemical
[2] = Pharmacokinetic study in rat plasma after oral administration of QJYQ (UHPLC-sMRM); type: in vivo, Sprague-Dawley rats
Method: Exion LC AD tandem Blueline 3500 triple quadrupole mass spectrometer (AB SCIEX, Framingham, MA, United States) was used to thirty-three compounds in rat plasma. […] The whole detailed parameters of sMRM were obtained in Supplementary Table S1.
Rat plasma (100 μL) was mixed with 10% formic acid (10 μL) and vortexed for 1 min at room temperature. ISs (10 μL) and methanol/acetonitrile (1/1, v/v) (400 μL) were added and vortexed for 5 min, then centrifuged for 10 min at 14,000 rpm and 4°C. The transported supernatant was condensed to dryness under the flow of nitrogen gas. The dried residue was reconstituted with 70% methanol (100 μL) by vortex-mixing for 5 min and centrifuging at 14,000 rpm for 10 min. Last, 2 μL of the solution were injected into the UHPLC-sMRM system.
The pharmacokinetic study was approved by the Animal Ethics Committee of Tianjin University of Traditional Chinese Medicine (TCM-LAEC2021228). Ten male Sprague-Dawley rats (weight 220–240 g) was kept at the animal center of Tianjin University of Traditional Chinese Medicine (Tianjin, China). […] The sample was transferred right away following a 10 min period of centrifugation at 7000 rpm and 4°C. All plasma samples were frozen and stored at −80°C.
All the pharmacokinetic parameters were calculated using the DAS 1.0 software (Drug and Statistics 1.0, Medical College of Wannan, China). Pharmacokinetic parameters include the maximum drug concentration in plasma (Cmax), the time to achieve maximum drug concentration (Tmax), the area under the plasma concentration-time curve (AUC), elimination half-life (T1/2), and mean residence time (MRT). The pharmacokinetic parameters were computed using the non-compartmental model. All data are expressed as mean ± standard deviation (SD). GraphPad Prism 8.0 (GraphPad Software Inc., La Jolla, CA, United States) software was used to draw the drug-time curve.

[3] = Stability of analytes in rat plasma (auto-sampler, freeze-thaw, room temperature, long-term); conditions: for Autosampler for 24 h Accuracy (%): autosampler 24 h; for Room temperature for 24 h Accuracy (%): room temperature 24 h; for Freeze thaw cycles Accuracy (%): three freeze-thaw cycles
Method: The stability of analytes in plasma was evaluated by analyzing 4 QC samples (n = 6). The stability was included auto-sampler stability (keeping the sample in auto-sampler for 24 h), three times of freeze-thaw cycles stability (freezing cycle at −80°C, thawing cycle at room temperature), room temperature stability (storing samples at room temperature for 24 h), long-term stability (storing samples at −80°C for 1 month). […] Accompanying curve was established when testing the sample, calculate and compare the ratio of the actual measured concentration to the theoretical concentration, expressed in accuracy and RSD.

[4] = male, Sprague-Dawley, rat plasma, oral QJYQ 3.15 g/kg, n = 8, mean ± SD
[5] = male, Sprague-Dawley, rat plasma, oral QJYQ 3.15 g/kg, n = 8, mean ± SD, read-out: AUC(0-t)
[6] = male, Sprague-Dawley, rat plasma, oral QJYQ 3.15 g/kg, n = 8, mean ± SD, read-out: AUC(0-∞)
[7] = male, Sprague-Dawley, rat plasma, oral QJYQ 3.15 g/kg, n = 8, mean ± SD, read-out: Cmax
[8] = male, Sprague-Dawley, rat plasma, oral QJYQ 3.15 g/kg, n = 8, mean ± SD, read-out: MRT (0-∞)
[9] = male, Sprague-Dawley, rat plasma, oral QJYQ 3.15 g/kg, n = 8, mean ± SD, read-out: MRT(0-t)
[10] = male, Sprague-Dawley, rat, in vivo, po, 3.15 g/kg

COc1cc(/C=C/C(=O)O)cc(OC)c1O [sinapic acid]
Working solution Accuracy (%) ([1]; 1.56 ng/mL): 100.0%
Working solution Accuracy (%) ([1]; 12.5 ng/mL): 90.2%
Working solution Accuracy (%) ([1]; 100 ng/mL): 94.2%
Working solution Accuracy (%) ([1]; 500 ng/mL): 87.0%
AUC(0-t) ([2]; rat, in vivo, po, 3.15 g/kg): 86.98 ± 6.62 ng·h/mL
AUC(0-∞) ([2]; rat, in vivo, po, 3.15 g/kg): 86.99 ± 6.62 ng·h/mL
Cmax ([2]; rat, in vivo, po, 3.15 g/kg): 26.77 ± 7.87 ng/mL
MRT (0-∞) ([2]; rat, in vivo, po, 3.15 g/kg): 6.28 ± 0.91 h
MRT(0-t) ([2]; rat, in vivo, po, 3.15 g/kg): 6.28 ± 0.91 h
T1/2 ([2]; rat, in vivo, po, 3.15 g/kg): 2.20 ± 0.13 h

O=C(O)C=Cc1ccc(O)cc1 [p-Coumaric acid]
Working solution Accuracy (%) ([1]; 1.56 ng/mL): 81.9%
Working solution Accuracy (%) ([1]; 100 ng/mL): 95.9%
Working solution Accuracy (%) ([1]; 500 ng/mL): 92.8%
Autosampler for 24 h Accuracy (%) ([3]; 1.56 ng/mL): 83.2%
Room temperature for 24 h Accuracy (%) ([3]; 1.56 ng/mL): 82.7%
Freeze thaw cycles Accuracy (%) ([3]; 1.56 ng/mL): 95.1%
−80°C for 1month Accuracy (%) ([3]; 1.56 ng/mL, −80°C 1 month): 110.0%
Autosampler for 24 h Accuracy (%) ([3]; 12.5 ng/mL): 102.0%
Room temperature for 24 h Accuracy (%) ([3]; 12.5 ng/mL): 96.1%
Freeze thaw cycles Accuracy (%) ([3]; 12.5 ng/mL): 95.2%
−80°C for 1month Accuracy (%) ([3]; 12.5 ng/mL, −80°C 1 month): 85.1%
Autosampler for 24 h Accuracy (%) ([3]; 100 ng/mL): 96.9%
Room temperature for 24 h Accuracy (%) ([3]; 100 ng/mL): 98.7%
Freeze thaw cycles Accuracy (%) ([3]; 100 ng/mL): 87.0%
−80°C for 1month Accuracy (%) ([3]; 100 ng/mL, −80°C 1 month): 115.0%
Autosampler for 24 h Accuracy (%) ([3]; 500 ng/mL): 115.0%
Room temperature for 24 h Accuracy (%) ([3]; 500 ng/mL): 97.8%
Freeze thaw cycles Accuracy (%) ([3]; 500 ng/mL): 88.7%
−80°C for 1month Accuracy (%) ([3]; 500 ng/mL, −80°C 1 month): 109.0%
half-life [2, 4]: 1.79 ± 0.38 h
AUC(0-t) [2, 5]: 381 ± 101 ng·h/mL
AUC(0-inf) [2, 6]: 385 ± 126 ng·h/mL
Cmax [2, 7]: 153 ± 33.4 ng/mL
MRT inf [2, 8]: 3.63 ± 1.57 h
MRT last [2, 9]: 3.03 ± 1.01 h

CC1(C)[C@@H](O[C@H]2O[C@H](C(=O)O)[C@@H](O)[C@H](O)[C@H]2O[C@@H]2O[C@H](C(=O)O)[C@@H](O)[C@H](O)[C@H]2O)CC[C@]2(C)[C@H]3C(=O)C=C4[C@@H]5C[C@@](C)(C(=O)O)CC[C@]5(C)CC[C@@]4(C)[C@]3(C)CC[C@@H]12 [glycyrrhizic acid]
Working solution Accuracy (%) ([1]; concentration 50 ng/mL): 88.5%
Working solution Accuracy (%) ([1]; concentration 100 ng/mL): 104.0%
Working solution Accuracy (%) ([1]; concentration 500 ng/mL): 87.0%
Autosampler for 24 h Accuracy (%) ([3]; concentration 12.5 ng/mL): 94.4%
Autosampler for 24 h Accuracy (%) ([3]; concentration 50 ng/mL): 100.0%
Autosampler for 24 h Accuracy (%) ([3]; concentration 100 ng/mL): 94.3%
Autosampler for 24 h Accuracy (%) ([3]; concentration 500 ng/mL): 94.5%
Room temperature for 24 h Accuracy (%) ([3]; concentration 50 ng/mL): 94.6%
Room temperature for 24 h Accuracy (%) ([3]; concentration 100 ng/mL): 107.0%
Room temperature for 24 h Accuracy (%) ([3]; concentration 500 ng/mL): 89.9%
Freeze thaw cycles Accuracy (%) ([3]; concentration 12.5 ng/mL): 84.6%
Freeze thaw cycles Accuracy (%) ([3]; concentration 500 ng/mL): 97.0%
−80°C for 1month Accuracy (%) ([3]; −80°C for 1 month, concentration 12.5 ng/mL): 85.6%
−80°C for 1month Accuracy (%) ([3]; −80°C for 1 month, concentration 50 ng/mL): 89.7%
−80°C for 1month Accuracy (%) ([3]; −80°C for 1 month, concentration 100 ng/mL): 96.2%
−80°C for 1month Accuracy (%) ([3]; −80°C for 1 month, concentration 500 ng/mL): 93.4%
Tmax ([2]; male, Sprague-Dawley, rat, plasma, po, 3.15 g/kg, rat plasma, oral QJYQ 3.15 g/kg, n = 8, mean ± SD, read-out: Tmax): < 0.5 h
half-life [2, 4]: 1.67 ± 0.16 h
AUC(0-t) [2, 5]: 1110 ± 138 ng·h/mL
AUC(0-inf) [2, 6]: 1120 ± 228 ng·h/mL
Cmax [2, 7]: 359 ± 147 ng/mL
MRT inf [2, 8]: 5.38 ± 1.16 h
MRT last [2, 9]: 5.3 ± 0.28 h

O=C(/C=C/c1ccc(O)c(O)c1)O[C@@H]1C[C@](O)(C(=O)O)C[C@@H](O)[C@H]1O [chlorogenic acid]
Autosampler for 24 h Accuracy (%) ([3]; 12.5 ng/mL): 94.6%
Room temperature for 24 h Accuracy (%) ([3]; 12.5 ng/mL): 97.3%
Freeze thaw cycles Accuracy (%) ([3]; 12.5 ng/mL): 100.0%
−80°C for 1month Accuracy (%) ([3]; 12.5 ng/mL, −80°C 1 month): 98.3%
Autosampler for 24 h Accuracy (%) ([3]; 50 ng/mL): 97.5%
Room temperature for 24 h Accuracy (%) ([3]; 50 ng/mL): 106.0%
−80°C for 1month Accuracy (%) ([3]; 50 ng/mL, −80°C 1 month): 115.0%
Autosampler for 24 h Accuracy (%) ([3]; 100 ng/mL): 96.9%
Room temperature for 24 h Accuracy (%) ([3]; 100 ng/mL): 105.0%
Freeze thaw cycles Accuracy (%) ([3]; 100 ng/mL): 95.5%
Autosampler for 24 h Accuracy (%) ([3]; 500 ng/mL): 85.5%
Room temperature for 24 h Accuracy (%) ([3]; 500 ng/mL): 94.3%
Freeze thaw cycles Accuracy (%) ([3]; 500 ng/mL): 96.9%
−80°C for 1month Accuracy (%) ([3]; 500 ng/mL, −80°C 1 month): 94.3%
detection in rat plasma ([2]; rat plasma after oral QJYQ 3.15 g/kg): not detected

O=C1C[C@@H](c2ccc(O[C@@H]3O[C@H](CO)[C@@H](O)[C@H](O)[C@H]3O)cc2)Oc2cc(O)ccc21 [liquiritin]
Working solution Accuracy (%) ([1]; 1.56 ng/mL): 99.4%
Working solution Accuracy (%) ([1]; 12.5 ng/mL): 94.1%
Working solution Accuracy (%) ([1]; 100 ng/mL): 100.0%
Working solution Accuracy (%) ([1]; 500 ng/mL): 86.6%
Autosampler for 24 h Accuracy (%) ([3]; 1.56 ng/mL): 84.0%
Room temperature for 24 h Accuracy (%) ([3]; 1.56 ng/mL): 111.0%
Freeze thaw cycles Accuracy (%) ([3]; 1.56 ng/mL): 110.0%
Autosampler for 24 h Accuracy (%) ([3]; 12.5 ng/mL): 108.0%
Room temperature for 24 h Accuracy (%) ([3]; 12.5 ng/mL): 94.4%
−80°C for 1month Accuracy (%) ([3]; 12.5 ng/mL, −80°C 1 month): 94.1%
Autosampler for 24 h Accuracy (%) ([3]; 100 ng/mL): 94.1%
Room temperature for 24 h Accuracy (%) ([3]; 100 ng/mL): 90.6%
Freeze thaw cycles Accuracy (%) ([3]; 100 ng/mL): 85.8%
−80°C for 1month Accuracy (%) ([3]; 100 ng/mL, −80°C 1 month): 103.0%
Autosampler for 24 h Accuracy (%) ([3]; 500 ng/mL): 91.2%
Room temperature for 24 h Accuracy (%) ([3]; 500 ng/mL): 89.3%
Freeze thaw cycles Accuracy (%) ([3]; 500 ng/mL): 87.0%
−80°C for 1month Accuracy (%) ([3]; 500 ng/mL, −80°C 1 month): 108.0%
AUC(0-inf) [2, 10]: 16.4 ± 5.06 ng·h/mL
AUC(0-t) [2, 10]: 16.3 ± 5.11 ng·h/mL
Cmax [2, 10]: 7.08 ± 2.25 ng/mL
MRT inf [2, 10]: 6.8 ± 1.19 h
MRT last [2, 10]: 6.4 ± 0.98 h
Tmax ([2]; male, Sprague-Dawley, rat, in vivo, po, 3.15 g/kg, Tmax): 0.52 ± 0.1 h
T1/2 ([2]; rat plasma, oral QJYQ 3.15 g/kg, n = 8, mean ± SD): 4.30 ± 3.09 h

O=C(/C=C/c1ccc(O[C@@H]2O[C@H](CO)[C@@H](O)[C@H](O)[C@H]2O)cc1)c1ccc(O)cc1O [isoliquiritin]
Working solution Accuracy (%) ([1]; 1.56 ng/mL): 106.0%
Working solution Accuracy (%) ([1]; 12.5 ng/mL): 110.0%
Working solution Accuracy (%) ([1]; 500 ng/mL): 93.3%
Autosampler for 24 h Accuracy (%) ([3]; 1.56 ng/mL): 99.3%
Room temperature for 24 h Accuracy (%) ([3]; 1.56 ng/mL): 88.9%
Freeze thaw cycles Accuracy (%) ([3]; 1.56 ng/mL): 95.5%
−80°C for 1month Accuracy (%) ([3]; 1.56 ng/mL, −80°C 1 month): 83.8%
Autosampler for 24 h Accuracy (%) ([3]; 12.5 ng/mL): 108.0%
Room temperature for 24 h Accuracy (%) ([3]; 12.5 ng/mL): 87.5%
Freeze thaw cycles Accuracy (%) ([3]; 12.5 ng/mL): 90.9%
Autosampler for 24 h Accuracy (%) ([3]; 100 ng/mL): 107.0%
Room temperature for 24 h Accuracy (%) ([3]; 100 ng/mL): 96.6%
Freeze thaw cycles Accuracy (%) ([3]; 100 ng/mL): 94.5%
−80°C for 1month Accuracy (%) ([3]; 100 ng/mL, −80°C 1 month): 106.0%
Autosampler for 24 h Accuracy (%) ([3]; 500 ng/mL): 96.3%
Room temperature for 24 h Accuracy (%) ([3]; 500 ng/mL): 96.7%
Freeze thaw cycles Accuracy (%) ([3]; 500 ng/mL): 91.6%
−80°C for 1month Accuracy (%) ([3]; 500 ng/mL, −80°C 1 month): 95.0%
